Source: ChEMBL document CHEMBL5303764, “Data for DCP probe BI-3812” (2023)

Experiments:
[1] = molecular target: Proto-oncogene tyrosine-protein kinase receptor Ret (Homo sapiens) (UniProt P07949); test: RET Invitrogen Lab (UK) kinase screen (BI); details: Compound concentration 1.0 uM
[2] = molecular target: Aurora kinase B (Homo sapiens) (UniProt Q96GD4); test: AURKB Invitrogen Lab (UK) kinase screen (BI); details: Compound concentration 1.0 uM
[3] = molecular target: Sigma intracellular receptor 2 (Homo sapiens) (UniProt Q5BJF2); details: Compound concentration 10.0 uM
[4] = molecular target: Prostaglandin G/H synthase 2 (Homo sapiens) (UniProt P35354); test: COX-2 Eurofins SafetyScreen44 (BI); details: Compound concentration 10.0 uM
[5] = molecular target: Muscarinic acetylcholine receptor M1 (Homo sapiens) (UniProt P11229); details: Compound concentration 10.0 uM
Sequence of Muscarinic acetylcholine receptor M1 (Homo sapiens) (P11229 whole entry): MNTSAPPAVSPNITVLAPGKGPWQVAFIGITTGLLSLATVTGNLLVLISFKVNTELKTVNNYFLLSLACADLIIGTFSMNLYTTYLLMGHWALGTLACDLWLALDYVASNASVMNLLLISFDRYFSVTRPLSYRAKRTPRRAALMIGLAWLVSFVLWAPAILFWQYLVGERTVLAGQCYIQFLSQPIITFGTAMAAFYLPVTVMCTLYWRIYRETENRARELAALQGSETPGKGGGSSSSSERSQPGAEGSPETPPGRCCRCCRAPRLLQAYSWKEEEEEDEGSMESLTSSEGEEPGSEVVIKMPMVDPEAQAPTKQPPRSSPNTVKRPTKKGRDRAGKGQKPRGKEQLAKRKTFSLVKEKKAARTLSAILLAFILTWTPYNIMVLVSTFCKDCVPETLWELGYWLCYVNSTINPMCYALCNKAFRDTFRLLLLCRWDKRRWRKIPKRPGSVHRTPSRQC

[6] = molecular target: Histamine H2 receptor (Homo sapiens) (UniProt P25021); test: H2/APT/HS Eurofins SafetyScreen44 (BI); details: filed as antagonist, Compound concentration 10.0 uM
Sequence of Histamine H2 receptor (Homo sapiens) (P25021 whole entry): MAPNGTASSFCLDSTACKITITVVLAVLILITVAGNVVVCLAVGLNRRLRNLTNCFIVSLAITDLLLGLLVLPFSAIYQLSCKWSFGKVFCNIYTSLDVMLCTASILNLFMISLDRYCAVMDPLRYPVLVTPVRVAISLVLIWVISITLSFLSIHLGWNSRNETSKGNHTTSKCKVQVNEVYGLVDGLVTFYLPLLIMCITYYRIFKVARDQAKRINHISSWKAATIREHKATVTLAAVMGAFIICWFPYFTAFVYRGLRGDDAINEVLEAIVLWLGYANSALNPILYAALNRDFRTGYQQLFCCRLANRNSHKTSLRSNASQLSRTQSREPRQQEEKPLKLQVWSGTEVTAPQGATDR

[7] = molecular target: Endothelin-1 receptor (Homo sapiens) (UniProt P25101); test: ETA/H Eurofins SafetyScreen44 (BI); details: Compound concentration 10.0 uM
[8] = molecular target: Serine/threonine-protein kinase Chk1 (Homo sapiens) (UniProt O14757); test: CHEK1 Invitrogen Lab (UK) kinase screen (BI); details: Compound concentration 1.0 uM
[9] = molecular target: Ribosomal protein S6 kinase beta-1 (Homo sapiens) (UniProt P23443); test: RPS6KB1 Invitrogen Lab (UK) kinase screen (BI); details: Compound concentration 1.0 uM
[10] = molecular target: cGMP-inhibited 3',5'-cyclic phosphodiesterase 3A (Homo sapiens) (UniProt Q14432); test: PDE3A Eurofins SafetyScreen44 (BI); details: Compound concentration 10.0 uM
[11] = molecular target: Insulin receptor (Homo sapiens) (UniProt P06213); test: INSR Invitrogen Lab (UK) kinase screen (BI); details: Compound concentration 1.0 uM
[12] = molecular target: Sodium-dependent serotonin transporter (Homo sapiens) (UniProt P31645); details: Compound concentration 10.0 uM
Sequence of Sodium-dependent serotonin transporter (Homo sapiens) (P31645 whole entry, looked up): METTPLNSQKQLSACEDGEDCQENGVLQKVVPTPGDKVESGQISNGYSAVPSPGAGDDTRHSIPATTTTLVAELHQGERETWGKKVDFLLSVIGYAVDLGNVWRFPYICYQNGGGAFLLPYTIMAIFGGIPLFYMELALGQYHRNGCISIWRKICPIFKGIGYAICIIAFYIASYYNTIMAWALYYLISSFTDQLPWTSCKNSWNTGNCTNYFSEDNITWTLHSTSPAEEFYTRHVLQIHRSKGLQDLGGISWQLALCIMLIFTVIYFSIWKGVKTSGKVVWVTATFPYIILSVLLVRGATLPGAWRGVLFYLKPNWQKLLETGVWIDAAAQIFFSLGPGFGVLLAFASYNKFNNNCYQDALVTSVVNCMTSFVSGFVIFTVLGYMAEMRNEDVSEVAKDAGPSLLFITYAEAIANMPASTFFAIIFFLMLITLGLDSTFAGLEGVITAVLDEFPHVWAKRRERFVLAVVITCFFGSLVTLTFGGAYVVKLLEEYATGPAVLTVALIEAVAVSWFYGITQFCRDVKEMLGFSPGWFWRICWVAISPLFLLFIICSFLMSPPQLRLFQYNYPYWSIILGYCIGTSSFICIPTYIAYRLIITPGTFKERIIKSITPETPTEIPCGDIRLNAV

[13] = molecular target: Myosin light chain kinase 2, skeletal/cardiac muscle (Homo sapiens) (UniProt Q9H1R3); test: MYLK2 Invitrogen Lab (UK) kinase screen (BI); details: Compound concentration 1.0 uM
[14] = molecular target: Glutamate NMDA receptor (Rattus norvegicus) (UniProt P35439+Q00959+Q00960+Q00961+Q62645+Q8VHN2+Q9R1M7); test: NMDA/R Eurofins SafetyScreen44 (BI); assay type: protein-complex assay; details: Compound concentration 10.0 uM
[15] = molecular target: D(4) dopamine receptor (Homo sapiens) (UniProt P21917); details: Compound concentration 10.0 uM
[16] = molecular target: T1, Muscarinic acetylcholine receptor M3 (Homo sapiens, UniProt P20309); test: M3/H Eurofins SafetyScreen44 (BI); details: Compound concentration 10.0 uM
[17] = molecular target: 5-hydroxytryptamine receptor 1B (Homo sapiens) (UniProt P28222); test: 5HT1B(H) Eurofins SafetyScreen44 (BI); details: filed as antagonist, Compound concentration 10.0 uM
Sequence of 5-hydroxytryptamine receptor 1B (Homo sapiens) (P28222 whole entry): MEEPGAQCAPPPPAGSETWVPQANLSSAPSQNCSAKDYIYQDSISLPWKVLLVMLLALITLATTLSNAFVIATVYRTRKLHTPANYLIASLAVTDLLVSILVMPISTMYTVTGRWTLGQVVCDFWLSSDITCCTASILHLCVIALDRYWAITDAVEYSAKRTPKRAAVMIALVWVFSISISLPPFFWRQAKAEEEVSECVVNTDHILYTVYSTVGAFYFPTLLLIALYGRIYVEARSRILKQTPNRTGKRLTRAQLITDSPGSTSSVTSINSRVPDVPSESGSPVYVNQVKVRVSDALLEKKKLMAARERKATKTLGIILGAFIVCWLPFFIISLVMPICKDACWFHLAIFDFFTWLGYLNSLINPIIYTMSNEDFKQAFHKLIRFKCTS

[18] = molecular target: Histamine H2 receptor (Homo sapiens) (UniProt P25021); details: Compound concentration 10.0 uM
[19] = molecular target: RAC-beta serine/threonine-protein kinase (Homo sapiens) (UniProt P31751); test: AKT2 Invitrogen Lab (UK) kinase screen (BI); details: Compound concentration 1.0 uM
[20] = molecular target: 5-hydroxytryptamine receptor 1B (Homo sapiens) (UniProt P28222); details: Compound concentration 10.0 uM
[21] = molecular target: Mitogen-activated protein kinase kinase kinase 8 (Homo sapiens) (UniProt P41279); test: MAP3K8 Invitrogen Lab (UK) kinase screen (BI); details: Compound concentration 1.0 uM
[22] = molecular target: GABA-A receptor; anion channel (Rattus norvegicus) (UniProt O09028+P15431+P18506+P18508+P19969+P20236+P23574+P23576+P28471+P28473+P30191+P62813+P63079+P63138+Q91ZM7+Q9ES14); test: BZD/CENTR/R Eurofins SafetyScreen44 (BI); assay type: protein-complex assay; details: Compound concentration 10.0 uM
[23] = molecular target: Zinc finger and BTB domain-containing protein 17 (Homo sapiens, UniProt Q13105); test: SPR (ZBTB17), Ontario institute for cancer research
[24] = molecular target: Beta-2 adrenergic receptor (Homo sapiens) (UniProt P07550); details: Compound concentration 10.0 uM
Sequence of Beta-2 adrenergic receptor (Homo sapiens) (P07550 whole entry, looked up): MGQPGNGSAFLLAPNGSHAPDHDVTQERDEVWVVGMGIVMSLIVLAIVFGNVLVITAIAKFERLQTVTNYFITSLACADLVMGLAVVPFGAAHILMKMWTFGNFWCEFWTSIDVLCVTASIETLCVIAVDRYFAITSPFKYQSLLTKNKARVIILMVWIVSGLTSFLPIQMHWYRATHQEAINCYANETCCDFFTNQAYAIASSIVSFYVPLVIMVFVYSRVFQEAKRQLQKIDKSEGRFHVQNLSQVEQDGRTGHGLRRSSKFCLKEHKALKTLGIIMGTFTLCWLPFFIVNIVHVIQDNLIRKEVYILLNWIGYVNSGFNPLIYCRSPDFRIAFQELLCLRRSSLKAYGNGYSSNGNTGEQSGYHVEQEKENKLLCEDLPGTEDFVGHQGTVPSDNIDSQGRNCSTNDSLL

[25] = molecular target: T1, Muscarinic acetylcholine receptor M3; test: GPCRScan assay: inhibition of M3; set-up: radioligand conc. used [nm] 0.3 – 1.0, parental cells stable CHO
[26] = molecular target: Alpha-2A adrenergic receptor (Homo sapiens) (UniProt P08913); details: Compound concentration 10.0 uM
[27] = molecular target: Serine/threonine-protein kinase Chk2 (Homo sapiens) (UniProt O96017); test: CHEK2 Invitrogen Lab (UK) kinase screen (BI); details: Compound concentration 1.0 uM
[28] = molecular target: D(1A) dopamine receptor (Homo sapiens) (UniProt P21728); test: D1/H Eurofins SafetyScreen44 (BI); details: filed as antagonist, Compound concentration 10.0 uM
[29] = molecular target: High affinity nerve growth factor receptor (Homo sapiens) (UniProt P04629); test: NTRK1 Invitrogen Lab (UK) kinase screen (BI); details: Compound concentration 1.0 uM
[30] = molecular target: D(3) dopamine receptor (Homo sapiens) (UniProt P35462); details: Compound concentration 10.0 uM
Sequence of D(3) dopamine receptor (Homo sapiens) (P35462 whole entry): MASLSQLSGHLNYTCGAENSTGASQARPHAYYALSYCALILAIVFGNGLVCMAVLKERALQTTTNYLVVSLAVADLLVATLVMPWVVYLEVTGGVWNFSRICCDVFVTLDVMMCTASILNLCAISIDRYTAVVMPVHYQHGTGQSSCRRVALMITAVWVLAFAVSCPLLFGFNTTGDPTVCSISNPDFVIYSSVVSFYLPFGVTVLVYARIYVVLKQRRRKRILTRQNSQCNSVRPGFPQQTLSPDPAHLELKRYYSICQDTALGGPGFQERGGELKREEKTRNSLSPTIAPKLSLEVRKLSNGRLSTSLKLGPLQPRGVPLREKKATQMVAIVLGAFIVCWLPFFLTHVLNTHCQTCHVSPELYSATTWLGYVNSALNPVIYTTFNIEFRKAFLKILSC

[31] = molecular target: Ribosomal protein S6 kinase alpha-4 (Homo sapiens) (UniProt O75676); test: RPS6KA4 Invitrogen Lab (UK) kinase screen (BI); details: Compound concentration 1.0 uM
[32] = molecular target: Focal adhesion kinase 1 (Homo sapiens) (UniProt Q05397); test: PTK2 Invitrogen Lab (UK) kinase screen (BI); details: Compound concentration 1.0 uM
[33] = molecular target: Alpha-2B adrenergic receptor (Homo sapiens) (UniProt P18089); details: Compound concentration 10.0 uM
Sequence of Alpha-2B adrenergic receptor (Homo sapiens) (P18089 whole entry): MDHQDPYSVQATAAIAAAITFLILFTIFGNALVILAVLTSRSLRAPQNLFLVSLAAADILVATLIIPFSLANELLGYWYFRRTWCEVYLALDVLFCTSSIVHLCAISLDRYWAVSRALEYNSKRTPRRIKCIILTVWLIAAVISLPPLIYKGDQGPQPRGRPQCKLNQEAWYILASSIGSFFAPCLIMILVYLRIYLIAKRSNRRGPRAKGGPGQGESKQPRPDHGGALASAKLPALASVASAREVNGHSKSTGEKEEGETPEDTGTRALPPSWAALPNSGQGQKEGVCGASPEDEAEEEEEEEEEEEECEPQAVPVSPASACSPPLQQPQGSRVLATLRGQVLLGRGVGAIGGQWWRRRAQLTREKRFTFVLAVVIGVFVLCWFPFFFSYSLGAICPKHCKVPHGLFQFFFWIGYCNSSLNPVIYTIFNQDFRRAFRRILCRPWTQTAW

[34] = molecular target: 5-hydroxytryptamine receptor 1D (Homo sapiens) (UniProt P28221); details: Compound concentration 10.0 uM
Sequence of 5-hydroxytryptamine receptor 1D (Homo sapiens) (P28221 whole entry): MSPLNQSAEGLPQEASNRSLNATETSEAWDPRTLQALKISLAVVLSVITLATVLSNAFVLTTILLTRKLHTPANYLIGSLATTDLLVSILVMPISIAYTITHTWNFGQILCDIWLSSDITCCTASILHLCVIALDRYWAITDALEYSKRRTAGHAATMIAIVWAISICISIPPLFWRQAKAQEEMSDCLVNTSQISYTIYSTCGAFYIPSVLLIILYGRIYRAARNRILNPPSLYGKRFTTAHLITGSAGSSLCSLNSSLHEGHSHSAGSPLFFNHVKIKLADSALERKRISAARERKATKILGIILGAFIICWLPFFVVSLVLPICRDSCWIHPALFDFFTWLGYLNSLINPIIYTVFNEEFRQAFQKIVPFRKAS

[35] = molecular target: Kappa-type opioid receptor (Homo sapiens) (UniProt P41145); test: KAPPA(KOP)_HU Eurofins SafetyScreen44 (BI); details: Compound concentration 10.0 uM
[36] = molecular target: Cannabinoid receptor 1 (Homo sapiens) (UniProt P21554); test: CB1(HU)_AGON Eurofins SafetyScreen44 (BI); details: filed as agonist, Compound concentration 10.0 uM
[37] = molecular target: Muscarinic acetylcholine receptor M4 (Homo sapiens, UniProt P08173); test: GPCRScan assay: inhibition of M4; set-up: radioligand conc. used [nm] 0.3 – 1.0, parental cells stable CHO
Sequence of Muscarinic acetylcholine receptor M4 (P08173 whole entry): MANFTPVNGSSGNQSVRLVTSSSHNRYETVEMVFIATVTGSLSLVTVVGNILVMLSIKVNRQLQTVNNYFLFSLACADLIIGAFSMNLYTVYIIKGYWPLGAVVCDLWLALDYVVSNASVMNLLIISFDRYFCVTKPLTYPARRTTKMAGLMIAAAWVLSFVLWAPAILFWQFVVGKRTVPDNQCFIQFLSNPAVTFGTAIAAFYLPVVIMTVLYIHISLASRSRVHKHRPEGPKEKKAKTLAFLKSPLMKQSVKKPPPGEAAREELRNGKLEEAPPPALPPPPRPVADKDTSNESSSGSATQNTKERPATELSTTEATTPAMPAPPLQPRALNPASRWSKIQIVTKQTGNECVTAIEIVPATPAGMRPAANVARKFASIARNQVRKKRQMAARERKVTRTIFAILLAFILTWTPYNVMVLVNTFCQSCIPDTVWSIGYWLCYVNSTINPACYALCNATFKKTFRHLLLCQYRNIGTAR

[38] = molecular target: 5-hydroxytryptamine receptor 2B (Homo sapiens) (UniProt P41595); details: Compound concentration 10.0 uM
Sequence of 5-hydroxytryptamine receptor 2B (Homo sapiens) (P41595 whole entry): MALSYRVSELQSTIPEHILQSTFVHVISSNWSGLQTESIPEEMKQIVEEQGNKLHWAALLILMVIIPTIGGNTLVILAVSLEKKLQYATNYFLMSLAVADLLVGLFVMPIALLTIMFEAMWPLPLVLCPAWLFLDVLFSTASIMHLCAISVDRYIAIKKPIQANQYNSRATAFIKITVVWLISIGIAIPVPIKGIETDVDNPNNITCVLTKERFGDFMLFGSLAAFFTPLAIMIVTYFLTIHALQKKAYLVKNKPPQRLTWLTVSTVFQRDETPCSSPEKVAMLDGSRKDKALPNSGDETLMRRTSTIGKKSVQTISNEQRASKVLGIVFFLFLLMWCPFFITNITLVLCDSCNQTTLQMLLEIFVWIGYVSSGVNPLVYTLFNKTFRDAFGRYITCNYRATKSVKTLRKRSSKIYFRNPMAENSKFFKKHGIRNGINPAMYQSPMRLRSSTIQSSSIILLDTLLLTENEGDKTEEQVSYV

[39] = molecular target: Sodium-dependent dopamine transporter (Homo sapiens) (UniProt Q01959); test: DATRANS/HUM Eurofins SafetyScreen44 (BI); details: Compound concentration 10.0 uM
hERG (KCNH2) = hERG (KCNH2) (Homo sapiens, UniProt Q12809); test: HERG_DOFETILIDE Eurofins SafetyScreen44 (BI); details: probe [3H]dofetilide, compound concentration 10 uM, read-out: % Ctrl
[40] = molecular target: Histamine H1 receptor (Homo sapiens) (UniProt P35367); details: Compound concentration 10.0 uM
Sequence of Histamine H1 receptor (Homo sapiens) (P35367 whole entry): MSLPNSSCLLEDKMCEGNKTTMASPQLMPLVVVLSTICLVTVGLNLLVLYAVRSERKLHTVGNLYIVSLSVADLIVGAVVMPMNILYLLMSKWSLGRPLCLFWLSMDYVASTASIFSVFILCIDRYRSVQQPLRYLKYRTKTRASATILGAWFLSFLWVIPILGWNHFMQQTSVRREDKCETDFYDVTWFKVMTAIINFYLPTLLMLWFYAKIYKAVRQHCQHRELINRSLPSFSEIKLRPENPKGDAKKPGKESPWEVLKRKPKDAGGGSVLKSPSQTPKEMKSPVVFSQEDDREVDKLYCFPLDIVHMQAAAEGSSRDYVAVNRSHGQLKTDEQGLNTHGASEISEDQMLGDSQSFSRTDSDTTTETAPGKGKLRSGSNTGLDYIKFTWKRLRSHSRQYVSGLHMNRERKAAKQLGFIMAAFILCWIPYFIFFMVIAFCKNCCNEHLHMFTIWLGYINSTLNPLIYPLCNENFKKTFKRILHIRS

[41] = molecular target: L-type Ca2+ channel (dihydropyridine site), Cav1.2 alpha-1C (Rattus norvegicus, UniProt P22002); test: CA+/DHPSI/R Eurofins SafetyScreen44 (BI); details: rat brain, probe [3H](+)PN200-110, compound concentration 10 uM, read-out: % Ctrl

CNC(=O)COc1cc2cc(Nc3nc(N4CCC(C(=O)N(C)C)CC4)ncc3Cl)cc(OC)c2n(C)c1=O
No binding: Kd [23]
92% (not active): activity at 10 µM (hERG (KCNH2))
< 5: pKi [25]
95% (not active): activity at 10 µM [41]
inactive: residual activity [1] 95% | residual activity [2] 89% | inhibition [3] 38.2% | residual activity [4] 74% | inhibition [5] 12.9% | residual activity [6] 104% | residual activity [7] 104% | residual activity [8] 91% | residual activity [9] 93% | residual activity [10] 142% | residual activity [11] 93% | inhibition [12] 14.1% | residual activity [13] 101% | residual activity [14] 104% | inhibition [15] 17.7% | residual activity [16] 88% | residual activity [17] 124% | inhibition [18] 9.74% | residual activity [19] 90% | inhibition [20] 9.19% | residual activity [21] 86% | residual activity [22] 125% | inhibition [24] 1.38% | inhibition [26] 15.1% | residual activity [27] 93% | residual activity [28] 100% | residual activity [29] 96% | inhibition [30] 14.6% | residual activity [31] 93% | residual activity [32] 90% | inhibition [33] 20.7% | inhibition [34] 13.2% | residual activity [35] 83% | residual activity [36] 123% | inhibition [38] -2.05% | residual activity [39] 101% | inhibition [40] 2.93%
878 nM: Ki ([37]; read-out: Ki)
> 10000 nM: Ki [25]
851 nM: Ki ([37]; read-out: pKi (converted))
